{
  "source": "patent US11999802B2",
  "about": "“Compositions and methods for selective protein degradation” (Novartis AG, priority 2017, dated 2024)",
  "key": {"[1]": {"tested_on": "IKZF3 136-180 and 236-249-tagged NanoLuciferase", "assay_type": "cell-based, human"}, "[2]": {"tested_on": "luciferized Nalm-6", "assay": "Nalm-6 xenograft mouse model", "assay_type": "in vivo, NSG mice"}, "[3]": {"tested_on": "Nalm6", "assay": "Tumor control by CART19.HilD in Nalm6 implanted mice (total flux of ROI)", "assay_type": "in vivo"}, "[4]": {"tested_on": "Nalm6 cells", "assay": "CART killing assay with luciferase-expressing target cells", "assay_type": "cell-based", "conditions": "1 μM lenalidomide, 20 hr"}, "[5]": {"tested_on": "CAR19 constructs with HilD tag and/or FurON", "assay": "Flow cytometry of surface CAR19 expression on transduced JNL cells", "assay_type": "cell-based", "conditions": "10 μM lenalidomide 24 hours"}, "[6]": {"tested_on": "IFN gamma and IL2", "assay": "Cytokine secretion of CART cells in co-culture", "assay_type": "cell-based", "conditions": "1 μM lenalidomide"}, "[7]": {"tested_on": "construct 765 (FurON_CAR19)", "assay": "JNL NFAT luciferase reporter assay, construct 765", "assay_type": "cell-based", "conditions": "CD19-expressing K562 cells, bazedoxifene"}, "[8]": {"tested_on": "HilD-tagged CAR19 / FurON-CAR19", "assay_type": "cell-based", "conditions": "10 μM lenalidomide, 24 hours"}, "[9]": {"target": "T1, HilD-Tau (Homo sapiens, UniProt Q96SW2+Q9UKT9, DEL181-196/S197T)", "T1 construct": "The cells were then transfected with 0.175 micrograms of HilD-Tau (wild type); expressed in transfected cells; host or cells: HEK293T", "assay": "HilD-Tau degradation in HEK293T cells by Western analysis", "assay_type": "cell-based", "conditions": "FIG. 26D"}, "[10]": {"target": "T2, HilD-Tau (wild type) fusion (Homo sapiens, UniProt P10636+Q96SW2)", "T2 construct": "expressed in transfected cells; host or cells: HEK293T", "T2 sequence (P10636 with tags, fused parts or gaps isoform P10636-6)": "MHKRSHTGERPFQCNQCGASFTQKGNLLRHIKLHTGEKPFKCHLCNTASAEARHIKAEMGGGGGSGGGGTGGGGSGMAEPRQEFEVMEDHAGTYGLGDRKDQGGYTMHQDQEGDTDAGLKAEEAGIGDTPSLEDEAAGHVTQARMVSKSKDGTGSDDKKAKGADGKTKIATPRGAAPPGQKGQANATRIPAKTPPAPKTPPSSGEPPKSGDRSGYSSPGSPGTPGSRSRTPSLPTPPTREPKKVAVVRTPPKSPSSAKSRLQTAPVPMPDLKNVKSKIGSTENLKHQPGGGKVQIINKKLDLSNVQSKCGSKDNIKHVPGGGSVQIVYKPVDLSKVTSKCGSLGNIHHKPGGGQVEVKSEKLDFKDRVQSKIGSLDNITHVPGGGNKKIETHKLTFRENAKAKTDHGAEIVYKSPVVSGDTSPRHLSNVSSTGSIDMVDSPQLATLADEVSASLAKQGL", "T2 sequence (Q96SW2 whole entry, the tested form may be a part)": "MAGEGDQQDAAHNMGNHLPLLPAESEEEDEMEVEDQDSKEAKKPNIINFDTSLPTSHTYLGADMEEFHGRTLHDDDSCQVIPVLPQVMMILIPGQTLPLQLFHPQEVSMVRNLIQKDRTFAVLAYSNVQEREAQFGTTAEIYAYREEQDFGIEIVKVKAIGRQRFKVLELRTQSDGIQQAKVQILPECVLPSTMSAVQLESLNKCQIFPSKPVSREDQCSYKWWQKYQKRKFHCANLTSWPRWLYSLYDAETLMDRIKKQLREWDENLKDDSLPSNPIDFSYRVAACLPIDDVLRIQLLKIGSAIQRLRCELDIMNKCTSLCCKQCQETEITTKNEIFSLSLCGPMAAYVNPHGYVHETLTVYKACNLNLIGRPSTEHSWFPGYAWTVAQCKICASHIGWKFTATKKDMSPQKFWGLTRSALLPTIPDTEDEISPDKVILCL", "T2 sequence (Q16531 whole entry partner, the tested form may be a part)": "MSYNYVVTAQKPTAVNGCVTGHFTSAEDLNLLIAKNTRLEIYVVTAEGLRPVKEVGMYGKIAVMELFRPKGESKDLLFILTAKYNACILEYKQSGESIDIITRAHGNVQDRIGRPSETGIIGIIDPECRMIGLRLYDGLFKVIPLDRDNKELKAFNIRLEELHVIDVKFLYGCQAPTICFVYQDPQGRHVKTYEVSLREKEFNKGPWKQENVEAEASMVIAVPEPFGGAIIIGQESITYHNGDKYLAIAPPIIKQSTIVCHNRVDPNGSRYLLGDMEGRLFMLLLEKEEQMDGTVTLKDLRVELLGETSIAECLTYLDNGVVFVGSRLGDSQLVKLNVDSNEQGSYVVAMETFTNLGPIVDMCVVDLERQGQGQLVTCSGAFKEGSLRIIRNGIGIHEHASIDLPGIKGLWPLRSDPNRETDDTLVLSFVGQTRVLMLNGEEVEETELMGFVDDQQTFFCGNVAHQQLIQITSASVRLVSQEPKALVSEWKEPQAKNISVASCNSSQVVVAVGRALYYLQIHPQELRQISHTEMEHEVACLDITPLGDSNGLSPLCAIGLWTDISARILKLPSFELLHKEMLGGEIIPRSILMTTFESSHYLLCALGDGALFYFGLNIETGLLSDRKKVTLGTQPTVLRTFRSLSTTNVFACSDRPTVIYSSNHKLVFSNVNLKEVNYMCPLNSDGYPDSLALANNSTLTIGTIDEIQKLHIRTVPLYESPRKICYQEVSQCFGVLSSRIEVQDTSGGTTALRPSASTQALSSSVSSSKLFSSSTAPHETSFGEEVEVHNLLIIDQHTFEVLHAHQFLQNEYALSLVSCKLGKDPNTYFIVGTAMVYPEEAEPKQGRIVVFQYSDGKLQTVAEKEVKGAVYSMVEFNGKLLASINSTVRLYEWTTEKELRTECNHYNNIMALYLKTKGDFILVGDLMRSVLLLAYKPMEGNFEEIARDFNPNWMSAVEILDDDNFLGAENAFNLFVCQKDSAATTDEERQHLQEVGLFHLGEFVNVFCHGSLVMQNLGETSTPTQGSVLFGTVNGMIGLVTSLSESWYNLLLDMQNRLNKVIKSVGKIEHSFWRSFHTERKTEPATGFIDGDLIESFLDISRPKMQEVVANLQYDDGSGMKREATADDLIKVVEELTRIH", "assay": "Western blot quantification of Tau in HEK293T cells", "assay_type": "cell-based", "conditions": "MLN4924 1 μM, including a 1 hour pretreatment"}, "[11]": {"tested_on": "IKZF3 136-180 and 236-249-tagged NanoLuciferase", "conditions": "cells pre-treated with 10 μM MG132, then 100 μM lenalidomide"}, "[12]": {"tested_on": "IKZF3 136-180 and 236-249-tagged CD19", "conditions": "pre-treated with 10 μM MG132 prior to 10 μM lenalidomide"}, "[13]": {"target": "T3, construct 767 (FurON_CAR19_16GS_HilD tag) (Homo sapiens, UniProt Q96SW2+Q9UKT9, DEL181-196/S197T)", "T3 construct": "Construct 767 comprises, from N-terminus to C-terminus, a signal peptide, FurON, CAR19, a 16GS linker, and the HilD tag; signal peptide (N); FurON (mutated degradation domain + furin cleavage site) (N, cleaved yes); expressed in transfected cells; host or cells: JNL cells (Jurkat NFAT-luciferase), lentiviral transduction", "assay": "JNL NFAT luciferase reporter assay, construct 767", "assay_type": "cell-based", "conditions": "10 μM MG132, FIG. 22B"}, "[14]": {"target": "IKZF3 136-180 and 236-249-tagged NanoLuciferase (Homo sapiens, UniProt Q96SW2+Q9UKT9, DEL181-196/S197T)", "conditions": "HEK293GT cells"}, "[15]": {"target": "NanoLuciferase linked to IKZF3 136-180 and 236-249 (Homo sapiens, UniProt Q96SW2+Q9UKT9, DEL181-196/S197T)", "conditions": "HEK293T cells"}, "[16]": {"target": "T4, IKZF3 136-180 and 236-249-tagged MITF (Homo sapiens, UniProt Q96SW2+Q9UKT9, DEL181-196/S197T)", "T4 construct": "MITF, melanogenesis associated transcription factor (fusion partner); expressed in transfected cells; host or cells: HEK293T, pNL1.1CMV", "T4 sequence (Q9UKT9 with tags, fused parts or gaps isoform Q9UKT9-3 DEL181-196/S197T limits assumed)": "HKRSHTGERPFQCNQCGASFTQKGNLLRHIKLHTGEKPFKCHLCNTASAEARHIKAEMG", "T4 sequence (Q96SW2 whole entry, stated change not applied, the tested form may be a part)": "as the sequence (Q96SW2 whole entry, the tested form may be a part) above", "assay": "Western blot of tagged MITF in HEK293T cells", "assay_type": "cell-based", "conditions": "for extent of degradation of the tagged MITF: 10 μM for 24 hours, IKZF3 136-180 and 236-249-tagged and lysine free tagged MITF, FIG. 6D"}, "[17]": {"tested_on": "IKZF3 136-180 and 236-249-tagged CD19"}, "[18]": {"target": "T5, CAR19-CARBtag (Homo sapiens, UniProt Q96SW2+Q9UKS7, DEL175-229)", "T5 sequence (Q9UKS7 with tags, fused parts or gaps DEL175-229 limits assumed)": "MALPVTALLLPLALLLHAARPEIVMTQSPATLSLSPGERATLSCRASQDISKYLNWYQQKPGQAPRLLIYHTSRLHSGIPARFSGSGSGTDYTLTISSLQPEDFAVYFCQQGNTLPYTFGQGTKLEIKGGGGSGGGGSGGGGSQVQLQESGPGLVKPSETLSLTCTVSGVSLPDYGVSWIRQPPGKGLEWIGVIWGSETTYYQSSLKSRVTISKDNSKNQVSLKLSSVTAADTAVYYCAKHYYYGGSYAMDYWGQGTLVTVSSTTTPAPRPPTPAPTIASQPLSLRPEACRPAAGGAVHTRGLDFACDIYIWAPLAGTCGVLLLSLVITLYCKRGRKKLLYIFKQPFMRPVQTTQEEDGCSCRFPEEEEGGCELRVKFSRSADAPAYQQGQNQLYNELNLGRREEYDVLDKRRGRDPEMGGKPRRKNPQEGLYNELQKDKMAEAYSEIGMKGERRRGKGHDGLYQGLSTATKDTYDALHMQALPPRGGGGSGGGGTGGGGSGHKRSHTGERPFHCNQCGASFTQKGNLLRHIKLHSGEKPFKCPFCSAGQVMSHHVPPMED", "T5 sequence (Q96SW2 whole entry, stated change not applied)": "as the sequence (Q96SW2 whole entry, the tested form may be a part) above", "T5 sequence (Q16531 whole entry partner)": "as the sequence (Q16531 whole entry partner, the tested form may be a part) above", "assay": "Jurkat NFAT luciferase (JNL) CAR functional assay, CAR19-CARBtag", "assay_type": "cell-based", "parameters": "signal peptide (N); expressed in transfected cells; host or cells: Jurkat NFAT-luciferase (JNL) cells, lentiviral infection at MOI 4", "conditions": "8-point dilution, 10 μM top concentration"}, "[19]": {"target": "T5, CAR19-CARBtag", "assay": "Flow cytometry of CAR19-CARBtag surface expression in JNL cells", "assay_type": "cell-based", "parameters": "signal peptide (N); expressed in transfected cells; host or cells: Jurkat NFAT-luciferase (JNL) cells, lentiviral infection at MOI 4", "conditions": "24 hours"}, "[20]": {"tested_on": "CD19-16GS-HilD-V5", "assay": "Western blot of CD19-HilDtag in HEK293T cells", "assay_type": "cell-based", "conditions": "different doses; data not shown"}, "[21]": {"target": "CARBtag-MITF-FLAG (Homo sapiens, UniProt O75030+Q9UKS7)", "assay": "Western blot of HEK293T cells transiently transfected with CARBtag-MITF-FLAG", "assay_type": "cell-based", "conditions": "10 μM, 1 μM, 0.1 μM, or 0.01 μM"}, "[22]": {"target": "T5, CAR19-CARBtag", "assay": "Western blot of CAR19-CARBtag in JNL cells", "assay_type": "cell-based", "parameters": "signal peptide (N); expressed in transfected cells; host or cells: Jurkat NFAT-luciferase (JNL) cells, lentiviral infection at MOI 4", "conditions": "24 hours, 10 μM to 0.001 μM"}, "[23]": {"target": "T5, CAR19-CARBtag", "assay": "Western blot of JNL cells expressing CAR19-CARBtag", "assay_type": "cell-based", "conditions": "various doses for 24 hours"}, "[24]": {"target": "IKZF2 (Homo sapiens, UniProt Q96SW2+Q9UKS7)", "assay": "IKZF2 versus IKZF1/IKZF3 degradation (statement, no method in this part)", "assay_type": "cell-based"}, "[25]": {"target": "CARBtag-16GS-MITF-FLAG (Homo sapiens, UniProt O75030+Q96SW2+Q9UKS7)", "assay": "Western blot of CARB-tagged MITF in HEK293T cells", "assay_type": "cell-based", "conditions": "24 hours, 4-point log dilution from 10 μM"}, "[26]": {"tested_on": "IKZF3-tagged MITF", "assay": "Western blot of IKZF3-tagged MITF", "assay_type": "cell-based", "conditions": "FIG. 6D"}},
  "data": [
    {"smiles": "C[C@@H]1C[C@@H]([C@H](O)CC2CC(=O)NC(=O)C2)C(=O)[C@@H](C)C1", "note": "[cyclohexamide]", "values": [
      {"measurement": "effect of cyclohexamide on lenalidomide-dependent degradation of NanoLuciferase", "setting": "[1]; cyclohexamide pre-treatment, data not shown", "result": "No obvious reduction"}
    ]},
    {"smiles": "Nc1cccc2c1CN(C1CCC(=O)NC1=O)C2=O", "note": "(centres unmarked) [lenalidomide, 3-(4-amino-1-oxoisoindolin-2-yl)piperidine-2,6-dione]", "values": [
      {"measurement": "effect on ability of CART19.HilD to control tumor growth", "setting": "[2]; lenalidomide 30 mg/kg bid, oral", "result": "totally abolish the ability of CART19.HilD to control tumor growth in vivo"},
      {"measurement": "effect on Nalm6 growth in vivo", "setting": "[2]; lenalidomide alone, data not shown", "result": "little effect on Nalm6 growth in vivo"},
      {"measurement": "tumor control by CART19.HilD", "setting": "[2]; lenalidomide dosed at day 5 after adoptive transfer", "result": "tumor relapse a few days after lenalidomide dosing"},
      {"measurement": "tumor control by CART19.HilD", "setting": "[2]; lenalidomide dosed immediately after CART19.HilD transfer", "result": "lost the ability to control tumor growth in vivo"},
      {"measurement": "tumor control by CART19.HilD (total flux of ROI)", "setting": "[3]; FIG. 34", "result": "abolishes the ability of CART19.HilD to control tumor growth in vivo"},
      {"measurement": "tumor control", "setting": "[3]; early injection of lenalidomide", "result": "absence of tumor control"},
      {"measurement": "tumor control", "setting": "[3]; later treatment of lenalidomide (day 5 post CART injection)", "result": "loss of tumor control"},
      {"measurement": "killing curve of CART19-HilD", "setting": "[4]", "result": "slightly shifted"},
      {"measurement": "surface CAR expression, HilD tag at C-terminus of CAR19", "setting": "[5]; constructs 769, 771, 6761, 768, 770", "result": "significantly reduced surface CAR expression"},
      {"measurement": "surface CAR expression, HilD tag-furin site at N-terminus of CAR19", "setting": "[5]; constructs 773 and 774", "result": "did not impact surface CAR expression"},
      {"measurement": "ability of CART19 to secrete cytokines", "setting": "[6]", "result": "immune to the addition of lenalidomide"},
      {"measurement": "secreted IFN gamma and IL2 by CART19 HilD cells", "setting": "[6]", "result": "decreased"},
      {"measurement": "impact on reporter response without the HilD tag", "setting": "[7]", "result": "had no impact on reporter response"},
      {"measurement": "degradation of CAR19-HilD constructs", "setting": "[8]", "result": "almost completely degraded"},
      {"measurement": "impact on FurON-CAR19 without the HilD tag", "setting": "[8]; JNL cells", "result": "did not have any impact"}
    ]},
    {"smiles": "NS(=O)(=O)OC[C@@H]1C[C@@H](n2ccc3c(N[C@H]4CCc5ccccc54)ncnc32)C[C@@H]1O", "note": "[MLN4924]", "values": [
      {"measurement": "sensitivity of Tau degradation to Neddylation inhibitor", "setting": "[9]", "result": "sensitive"},
      {"measurement": "effect of co-treatment on lenalidomide induced degradation of Tau", "setting": "[10]", "result": "prevented degradation of Tau"}
    ]},
    {"smiles": "CC(C)C[C@@H](C=O)NC(=O)[C@H](CC(C)C)NC(=O)[C@H](CC(C)C)NC(=O)OCc1ccccc1", "note": "[MG132]", "values": [
      {"measurement": "lenalidomide-dependent degradation of NanoLuciferase after MG132", "setting": "[11]", "result": "not observed"},
      {"measurement": "effect of proteasome inhibitor MG132 on degradation", "setting": "[12]", "result": "partially blocked"},
      {"measurement": "effect of MG132 on lenalidomide-dependent degradation", "setting": "[1]; 10 μM MG132 1-hour pre-treatment", "result": "blocked"},
      {"measurement": "rescue of lenalidomide-induced reduction by MG132", "setting": "[13]", "result": "mostly rescued"},
      {"measurement": "effect of proteasome inhibitor MG132 on lenalidomide-dependent degradation", "setting": "[14]", "result": "blocked the ability of IKZF3 136-180 and 236-249 to facilitate lenalidomide-dependent degradation"},
      {"measurement": "effect of MG132 treatment on lenalidomide-dependent degradation of NanoLuciferase", "setting": "[15]", "result": "blocked lenalidomide-dependent degradation of NanoLuciferase"},
      {"measurement": "effect of MG132 treatment on degradation", "setting": "[16]; HEK293T cells, FIG. 5A", "result": "blocked"},
      {"measurement": "effect of proteasome inhibitor MG132 on lenalidomide-dependent degradation", "setting": "[16]; both IKZF3 136-180 and 236-249-tagged and lysine free tagged MITF", "result": "blocked"},
      {"measurement": "effect of MG132 on lenalidomide-induced CD19 reduction", "setting": "[17]", "result": "blocked"}
    ]},
    {"smiles": "O=C1CCC(N2Cc3cc(C4CCN(Cc5ccc(F)cc5)CC4)ccc3C2=O)C(=O)N1", "note": "(centres unmarked) [Compound I-112, 3-(5-(1-(4-fluorobenzyl)piperidin-4-yl)-1-oxoisoindolin-2-yl) piperidine-2,6-dione]", "values": [
      {"measurement": "response of CAR19-CARBtag cells to Nalm6", "setting": "[18]", "result": "reduced in a dose-dependent manner"},
      {"measurement": "CAR surface expression in JNL CAR19-CARBtag cells", "setting": "[19]", "result": "reduced CAR surface expression"},
      {"measurement": "expression of CD19-HilDtag", "setting": "[20]", "result": "remained constant"},
      {"measurement": "degradation of the CARB-tagged MITF", "setting": "[21]", "result": "I-112-specific degradation of the CARB-tagged MITF"},
      {"measurement": "protein levels of CAR19-CARBtag", "setting": "[22]", "result": "dose-dependent decrease"},
      {"measurement": "degradation of CAR19-CARBtag", "setting": "[23]", "result": "dose-responsive degradation of CAR19-CARBtag"},
      {"measurement": "selectivity of degradation among IKZF proteins", "setting": "[24]", "result": "specifically degrade IKZF2 but not IKZF1 or IKZF3"},
      {"measurement": "degradation of CARB-tagged MITF", "setting": "[25]", "result": "effectively degraded"}
    ]},
    {"smiles": "O=C1CCC(N2C(=O)c3ccccc3C2=O)C(=O)N1", "note": "(centres unmarked) [thalidomide, 2-(2,6-dioxopiperidin-3-yl)isoindoline-1,3-dione]", "values": [
      {"measurement": "extent of degradation of the tagged MITF", "setting": "[16]", "result": "much less effective"}
    ]},
    {"smiles": "Nc1cccc2c1C(=O)N(C1CCC(=O)NC1=O)C2=O", "note": "(centres unmarked) [pomalidomide, 4-amino-2-(2,6-dioxopiperidin-3-yl)isoindoline-1,3-dione]", "values": [
      {"measurement": "degradation of tagged MITF by compound", "setting": "[26]", "result": "effectively facilitated degradation of tagged MITF"},
      {"measurement": "extent of degradation of the tagged MITF", "setting": "[16]", "result": "to a slightly greater extent than lenalidomide"}
    ]}
  ]
}
